Consider ten compounds from patent publication US20070154449A1, “TIGHT JUNCTION MODULATING PEPTIDES FOR ENHANCED MUCOSAL DELIVERY OF THERAPEUTIC COMPOUNDS” (Nastech Pharmaceutical Company Inc., priority 2005, published 2007).

For series [1], the system named is in vitro epithelial tissue model. As to the kind of experiment: Papp of drugs with and without PN159, in vitro tissue model. Conditions: for Papp: Galantamine 40 mg/mL, pH 5.0. As to the method:
In the present studies, 40 mg/ml galantamine in the lactate salt form was combined with 25, 50, and 100 μM PN159 in solution, pH 5.0 and osmolarity ˜270 mOsm. The combination was tested using an in vitro epithial tissue model to monitor galantamine permeation, transepithelial electrical resistance (TER), and the cytotoxicity of the formulation by LDH and MTT assays as described above. Permeation measurements for galantamine were conducted by standard HPLC analysis, as follows.
Galantamine concentration in the formulation and in the basolateral media (permeation samples) was determined using an isocratic LC (Waters Alliance) method with UV detection. • Column: Waters Symmetry Shield, C18, 5 um, 25×0.46 cm • Mobile phase: 5% ACN in 50 mM ammonium formate, pH 3.0 • Flow rate: 1 ml/min • Column temperature: 30° C. • Calibration curve: 0-400 μg/ml Galantamine HBr • Detection: UV at 285 nm
To evaluate permeabilizing activity in this context, 40 mg/ml galantamine in the lactate salt form was combined with 25, 50, and 100 μM PN159 in solution, pH 5.0 and osmolarity ˜270 mOsm. The combination was tested using an in vitro epithelal tissue model to monitor galantamine permeation, transepithelial electrical resistance (TER), and the cytotoxicity of the formulation by LDH and MTT assays.
For this purpose, in vitro tissue studies were performed on salmon calcitonin as a model therapeutic peptide in the absence and presence of […] PN159.

Series [2] can be described thus: Intranasal PYY(3-36) pharmacokinetics in rabbits with various TJMPs (Example 10). It is filed as in vivo, New Zealand White rabbits. The note with it: for AUCinf / AUClast / Cmax / T1/2 / Tmax: PYY(3-36) in plasma, 205 μg/kg intranasal with the named TJMP (concentration per Table 11, 50-1000 μM) or PBS, mean; for AUCinf / AUClast / Cmax / T1/2 / Tmax / In Vivo Tier Ranking: rabbit; for In Vivo Tier Ranking: PYY(3-36) 205 μg/kg intranasal, TJMP concentration per Table 11: PN159 50 μM, PN161, PN202 100 μM, PN27 250 μM, PN58, PN73, PN228 500 μM, PN183, PN556 1000 μM; for in vivo permeability relative to PN159: PYY(3-36) intranasal in rabbits, TJMPs at the concentrations tested. An excerpt: The tubes were chilled until […].

For series [3], the system named is human-derived tracheal/bronchial epithelial cells (EpiAirway™ Tissue model system). Kind of series: Cytotoxicity (LDH assay), EpiAirway tissue model. In kind it is cell-based. Here is the method: The amount of cell death was assayed by measuring the release of lactate dehydrogenase (LDH) from the cells into the apical medium using a CytoTox 96 Cytotoxicity Assay Kit (Promega Corp., Madison, Wis.). One percent Octylphenolpoly (ethyleneglycolether)×(Triton X-100™) diluted in phosphate buffered saline (PBS) causes 100% lysis in cultured cells and served herein as a positive control for the LDH assay. Following the one hour incubation period with a test formulation (refer to Table 4 in Example 2 for details of test formulations), the total liquid volume of each insert was brought to a final volume of 200 μl with culture medium. The apical medium was then mixed by pipetting four times with a multichannel pipette set to a 100 μl volume. After mixing, a 100 μl sample from the apical side of each insert was transferred to a new 96-well plate. The apical media samples were sealed with a plate sealer and stored at room temperature for same day analysis or stored overnight at 4° C. for analysis the next day. To measure LDH levels, 5 μl of the 100 μl apical media sample was diluted in 45 μl DPBS in a new 96-well plate. Fresh, cell-free culture medium will be used as a blank. Fifty microliters of substrate solution was added to each well and incubated for 30 minutes at room temperature away from direct light. Following the 30 minute incubation, 50 μl of stop solution was added to each well. Optical density (OD) was measured at 490 nm with a uQuant absorbance plate reader from Biotek Instruments. The measurement of LDH release into the apical media indicates relative cytotoxicity of the samples. Percent cytotoxicity for each test formulation was calculated by subtracting the measured absorbance of the PBS control (basal level of LDH release) from the measured absorbance of the individual test formulation and then dividing that value by the measured absorbance for the 1% Triton X-100™ positive control, multiplied by 100.
The formula used to calculate percent cytotoxicity is as follows: [formula] Osmolality
Of the total 300 μl volume for each test formulation, only a 20 μl sample was applied to the human-derived tracheal/bronchial epithelial cells (EpiAirway™ Tissue model system) in order to assess the effect each test formulation had on TER, LDH and sample permeation.

No end group written: not given here.

Take `CC(C)C[C@H](NC(=O)[C@H](CCCCN)NC(=O)CNC(=O)[C@H](CC(C)C)NC(=O)[C@@H](NC(=O)[C@@H]1CSSC[C@H](N)C(=O)N[C@@H](CO)C(=O)N[C@@H](CC(N)=O)C(=O)N[C@@H](CC(C)C)C(=O)N[C@@H](CO)C(=O)N[C@@H]([C@@H](C)O)C(=O)N1)C(C)C)C(=O)N[C@@H](CO)C(=O)N[C@@H](CCC(N)=O)C(=O)N[C@@H](CCC(=O)O)C(=O)N[C@@H](CC(C)C)C(=O)N[C@@H](Cc1c[nH]cn1)C(=O)N[C@@H](CCCCN)C(=O)N[C@@H](CC(C)C)C(=O)N[C@@H](CCC(N)=O)C(=O)N[C@H](C(=O)N[C@@H](Cc1ccc(O)cc1)C(=O)N1CCC[C@H]1C(=O)N[C@@H](CCCNC(=N)N)C(=O)N[C@H](C(=O)N[C@@H](CC(N)=O)C(=O)N[C@H](C(=O)NCC(=O)N[C@@H](CO)C(=O)NCC(=O)N[C@H](C(=O)N1CCC[C@H]1C(N)=O)[C@@H](C)O)[C@@H](C)O)[C@@H](C)O)[C@@H](C)O` [Calcitonin, salmon calcitonin]: the “fold increase in Papp of calcitonin with PN159” value in series [1] is listed as 23-47 fold.

With `COc1ccc2c3c1O[C@H]1C[C@@H](O)C=C[C@@]31CCN(C)C2` [Galantamine, galantamine], the “fold increase in Papp of galantamine with PN159” value in series [1] (40 mg/ml galantamine lactate, pH 5.0, with 25, 50, 100 PN159 versus without) was 2.5-3.5 fold. In addition, the Papp in series [1] ([PN159] 0 μM) was 21 nm/s; in series [1] ([PN159] 0 μM, listed as galantamine), “about 2.1×10^−6 cm/s”; in series [1] ([PN159] 25 μM) it was 51 nm/s; in series [1] ([PN159] 50 μM) it was 62 nm/s; in series [1] ([PN159] 100 μM), 72 nm/s.

In series [2], `CC[C@H](C)[C@H](NC(=O)[C@H](CCCCN)NC(=O)[C@@H](NC(=O)[C@H](CCC(N)=O)NC(=O)[C@@H](N)CCCNC(=N)N)[C@@H](C)CC)C(=O)N[C@@H](Cc1c[nH]c2ccccc12)C(=O)N[C@@H](Cc1ccccc1)C(=O)N[C@@H](CCC(N)=O)C(=O)N[C@@H](CC(N)=O)C(=O)N[C@@H](CCCNC(=N)N)C(=O)N[C@@H](CCCNC(=N)N)C(=O)N[C@@H](CCSC)C(=O)N[C@@H](CCCCN)C(=O)N[C@@H](Cc1c[nH]c2ccccc12)C(=O)N[C@@H](CCCCN)C(=O)N[C@@H](CCCCN)C(N)=O` [PN58] yielded an AUCinf of 871000 pg·min/mL, an AUClast of 830000 pg·min/mL, a Cmax of 0.0128 µg/mL and a T1/2 of 29.5 min. Besides, in series [2], the Tmax is given as 43.0 min.

Take `CC[C@H](C)[C@H](NC(=O)[C@H](CCCCN)NC(=O)[C@H](CCCCN)NC(=O)[C@H](C)NC(=O)[C@H](CC(C)C)NC(=O)[C@H](C)NC(=O)[C@H](C)NC(=O)[C@H](CC(C)C)NC(=O)[C@H](C)NC(=O)[C@H](CCCCN)NC(=O)[C@H](CC(C)C)NC(=O)[C@H](CC(N)=O)NC(=O)[C@@H](NC(=O)[C@H](CCCCN)NC(=O)CNC(=O)[C@H](CC(C)C)NC(=O)[C@H](CC(C)C)NC(=O)[C@H](Cc1ccc(O)cc1)NC(=O)CNC(=O)[C@H](C)NC(=O)[C@H](CO)NC(=O)[C@H](CC(N)=O)NC(=O)[C@H](CC(C)C)NC(=O)[C@@H](NC(=O)[C@H](Cc1c[nH]c2ccccc12)NC(=O)CN)[C@@H](C)O)[C@@H](C)CC)C(=O)N[C@@H](CC(C)C)C(N)=O` [PN161]: in series [2], the “In Vivo Tier Ranking” value is given as “I”, the AUCinf is 1.65e+06 pg·min/mL, the AUClast stood at 1.62e+06 pg·min/mL and the Cmax was 0.0321 µg/mL. For the same compound, in series [2], the T1/2 turned out to be 34.3 min, the Tmax is reported as 24.0 min and the “in vivo permeability relative to PN159” value is “comparable to PN159”.

`CC[C@H](C)[C@H](NC(=O)[C@H](CCC(=O)O)NC(=O)[C@H](CO)NC(=O)[C@@H](NC(=O)[C@@H](N)CO)C(C)C)C(=O)N[C@@H](CCC(N)=O)C(=O)N[C@@H](CC(C)C)C(=O)N[C@@H](CCSC)C(=O)N[C@@H](Cc1cnc[nH]1)C(=O)N[C@@H](CC(N)=O)C(=O)N[C@@H](CC(C)C)C(=O)NCC(=O)N[C@@H](CCCCN)C(=O)N[C@@H](Cc1cnc[nH]1)C(=O)N[C@@H](CC(C)C)C(=O)N[C@@H](CC(N)=O)C(=O)N[C@@H](CO)C(=O)N[C@@H](CCSC)C(=O)N[C@@H](CCC(=O)O)C(=O)N[C@@H](CCCN=C(N)N)C(=O)N[C@H](C(=O)N[C@@H](CCC(=O)O)C(=O)N[C@@H](Cc1c[nH]c2ccccc12)C(=O)N[C@@H](CC(C)C)C(=O)N[C@@H](CCCN=C(N)N)C(=O)N[C@@H](CCCCN)C(=O)N[C@@H](CCCCN)C(=O)N[C@@H](CC(C)C)C(=O)N[C@@H](CCC(N)=O)C(=O)N[C@@H](CC(=O)O)C(=O)N[C@H](C(=O)N[C@@H](Cc1cnc[nH]1)C(=O)N[C@@H](CC(N)=O)C(=O)N[C@@H](Cc1ccccc1)C(=O)O)C(C)C)C(C)C` [PTH1-34, human parathyroid hormone 1-34]: the “fold increase in Papp of PTH1-34 with PN159” value in series [1] is reported as 3-5 fold.

With AAVALLPAVLLALLAPRKKRRQRRRPPQ-NH2 [PN27], in series [2], the “In Vivo Tier Ranking” value is “I”, the AUCinf is 1.71e+06 pg·min/mL, the AUClast stood at 1.67e+06 pg·min/mL and the Cmax was 0.0293 µg/mL. In series [2], the T1/2 stood at 29.9 min, the Tmax is reported as 33.0 min and the “in vivo permeability relative to PN159” value is given as “comparable to PN159”.

In the case of “KETWWETWWTEWSQPGRKKRRQRRRRPPQ-NH2 [PN183]”, in series [2], the AUCinf is 275000 pg·min/mL, the AUClast came out at 258000 pg·min/mL, the Cmax is 0.00545 µg/mL and the T1/2 turned out to be 33.7 min. For the same compound, in series [2], the Tmax was 22.0 min.

In series [2], KLWSAWPSLWSSLWKP-NH2 [PN228] had an AUCinf of 1.08e+06 pg·min/mL, an AUClast of 1.06e+06 pg·min/mL, a Cmax of 0.0212 µg/mL and a T1/2 of 30.4 min. In series [2], the Tmax was found to be 31.0 min.

Regarding LRKLRKRLLRLRKLRKRLLR-NH2 [PN745], the LDH is listed as 11% in series [3] (25 μM peptide, 1 h incubation, % of 1% Triton X-100 control); 28% in series [3] (100 μM peptide, 1 h incubation, % of 1% Triton X-100 control); 45% in series [3] (250 μM peptide, 1 h incubation, % of 1% Triton X-100 control); 45% in series [3] (500 μM peptide, 1 h incubation, % of 1% Triton X-100 control); 45% in series [3] (1000 μM peptide, 1 h incubation, % of 1% Triton X-100 control).

In series [3] (1% Triton X-100, positive (100% release) control), “Octylphenolpoly (ethyleneglycolether)× [Triton X-100, reference compound]” came in with an LDH of 100%.
